Measurements reported in publication PMC6797481, “Identification of an allosteric binding site on the human glycine transporter, GlyT2, for bioactive lipid analgesics” (eLife, 2019).

Legend:
[1] = system: GlyT2 F428A, V432A, Y550L, P561S, W563L and L569F mutants; assay: Screen of GlyT2 point mutants for inhibition by 1 µM oleoyl L-carnitine; type: cell-based, human; settings: range over F428A
Description: The binding site for the allosteric serotonin reuptake inhibitor, (S)-citalopram, lies in the extracellular facing vestibule of SERT, formed by residues from TM1b, TM6a, TM10, and TM11 ([Coleman et al., 2016]). To determine if bioactive lipids inhibit GlyT2 by binding to this ‘vestibule allosteric site,’ corresponding residues in GlyT2 were mutated to remove potential interactions. OLCarn contains a bulky, zwitterionic head group conjugated to an oleoyl lipid tail, and was used as a screen to test mutant transporters for sensitivity to inhibition. None of the transporters containing mutations in the vestibule allosteric site display any change in inhibition compared to WT (Figure 1a). […] Mutations to GlyT2 residues were made either to resemble GlyT1, or to remove potential interactions with bioactive lipids but not disrupt the overall transport activity, often using substitutions present in the bacterial homologue, LeuT.
Figure 1. Defining the bioactive lipid binding site. (a) Inhibition of GlyT2 by 1 µM oleoyl L-carnitine. Transporters were WT or with mutations to the vestibule allosteric site (VAS) or adjacent to EL4. The reduced glycine transport currents were normalised to the current elicited by glycine alone. Data represented are means ± SEM with ****p<0.001 following a one way ANOVA test. […]

[2] = design: method as in Mostyn et al., 2019; settings: ref Mostyn et al., 2019; cited from earlier work

Compound	inhibition of glycine transport current [1]	metabolic stability [2]
CCCCCCCC/C=C\CCCCCCCC(=O)O[C@H](CC(=O)[O-])C[N+](C)(C)C [oleoyl L-Carnitine, reference compound]	14.9–29.0%	–
oleoyl d-Lysine	–	metabolically stable
